Where a SMILES comes first, the peptide text is derived from it. The star is where a group is joined. X1 = NC(=O)C12CC3CC(CC(N*)(C3)C1)C2
Key:
[1] = test system: STAT3 phosphorylation at Tyr705; assay: Western blot of pSTAT3 (Tyr705) in hippocampus of 3-week-old offspring (placental/lactational and BBB delivery); format: in vivo, WT and Ts65Dn mice; conditions: inferred from reduced hippocampal pSTAT3 in 3-week-old offspring; 200 nmoles/g diet to dams E8-PND21
Description: The studies regarding the plasma stability and stability in gastric and intestinal juices of P021 were done at EVER NeuroPharma GmbH, Unterach, Austria[67]. Briefly, the compound P021 was found stable both in artificial gastric juice (>90%) and in artificial intestinal juice (>95%) as analyzed up to 30 min and 2 hours, respectively. […] It is also worth mentioning that young mice may have consumed some P021 diet directly as young mice start consuming solid food by ~PND16.
After completion of behavioral testing, the 3-week-old mice from the neurobehavioral development study and the ~7-month-old mice from the longitudinal study were anesthetized with an overdose of sodium pentobarbital (125 mg/kg) and were transcardially perfused with 0.1 M phosphate buffered saline (PBS). The mouse brains were extracted immediately after perfusion. The left hemisphere of the brain was dissected into hippocampus, cerebral cortex, cerebellum, and brain stem, immediately frozen on dry ice, and then stored at −80 °C till further processing for biochemical analysis.
The hippocampus from left cerebral hemisphere stored at −80 °C from each mouse was homogenized in a Teflon-glass homogenizer to obtain 10% (w/v) homogenate. […] The blots were developed and quantified as described before. For quantification of different protein levels, each immunoreactive band was normalized to its corresponding GAPDH band.

Ts65Dn mice = assay: General examination and monthly body weight, adult mice and mothers; format: in vivo
Description: We treated 2–3-month-old pregnant Ts65Dn (Dn) and wild-type (WT) mothers from day 8 (E8) of pregnancy till the weaning of the pups on PND21 with compound P021 (P) in the feed, or as control with vehicle (V) feed (Fig. 1). The offsprings also had access to the P021 or vehicle diet as per mother’s group till PND21. The offsprings from Ts65Dn mothers were genotyped to identify Ts65Dn and WT pups. There were 6 study groups as follows: WT offsprings of WT mothers on vehicle diet (WT-V-WT), WT offsprings of WT mothers on P021 diet (WT-P-WT), WT offsprings of Ts65Dn mothers on vehicle diet (Dn-V-WT), WT offsprings of Ts65Dn mothers on P021 diet (Dn-P-WT), Ts65Dn offsprings of Ts65Dn mothers on vehicle diet (Dn-V-Dn), and Ts65Dn offsprings of Ts65Dn mothers on P021 diet (Dn-P-Dn). In the first phase of the study (Fig. 1b), the newborn pups were evaluated for neurobehavioral development starting on PND1 and carried out until PND21 (or until the appearance of developmental milestone/reflex). After completion of behavioral testing, the 3-week-old mice were sacrificed and brain tissue was collected. The neurobehavioral development component of the study was performed on WT-V-WT (n = 11), WT-P-WT (n = 10), Dn-V-WT (n = 10), Dn-P-WT (n = 9), Dn-V-Dn (n = 11), and Dn-P-Dn (n = 12) mice. In the second phase of the study (Fig. 1c), after prenatal to early postnatal treatment, the offsprings were allowed to grow till 5 months of age, and then general behavioral evaluation and cognitive testing were performed. After weaning, the offsprings received regular mouse chow. After completion of behavioral testing, ~7-month-old animals were sacrificed and brain tissue was collected for biochemical analyses. This longitudinal component of the study was carried out on WT-V-WT (n = 10), WT-P-WT (n = 12), Dn-V-WT (n = 12), Dn-P-WT (n = 11), Dn-V-Dn (n = 13), and Dn-P-Dn (n = 12) mice.
For both the neurobehavioral development in mouse pups and the longitudinal adult mice studies, the physical state and condition of the animals (both mothers and offsprings) were carefully examined throughout the respective study duration. Body weight of mouse pups was recorded daily from PND1 to PND21. Body weight of adult mice was evaluated monthly. Adult mice were not subjected to any behavioral testing till they were ~5 months of age.

[2] = done at EVER NeuroPharma GmbH, cited from earlier work
Description: The studies regarding the plasma stability and stability in gastric and intestinal juices of P021 were done at EVER NeuroPharma GmbH, Unterach, Austria[67]. Briefly, the compound P021 was found stable both in artificial gastric juice (>90%) and in artificial intestinal juice (>95%) as analyzed up to 30 min and 2 hours, respectively.

[3] = adult C57Bl/6 mice, commercial service APREDICA; cited from earlier work
3xTg-AD mice = conditions: concluded from hippocampal pSTAT3 decrease after oral P021 in diet; cited from earlier work
[4] = cited from earlier work
Description: The compound P021 exerts a neurogenic and neurotrophic effect by inhibiting leukemia inhibitory factor (LIF) signaling pathway and enhancing brain derived neurotrophic factor (BDNF) expression by increasing its transcription.

[5] = administration in clinical trials, humans; cited from earlier work
Description: Overall, we observed a significant group effect in body weight [Fig. 7a; 2-way ANOVA, F(5,410) = 14.28, p < 0.0001] and its change with age [F(4,410) = 100.25, p < 0.0001], however, group × age interaction was not significant [F(20,410) = 0.10, p = 1.0]. Bonferroni’s p ...

Molecule: CC(=O)N[C@@H](CC(=O)O)C(=O)NCC(=O)NCC(=O)N[C@@H](CC(C)C)C(=O)NC12CC3CC(C1)CC(C(N)=O)(C3)C2 [Peptide P021] (Ac-DGGL-X1)
- placental/lactational delivery to offspring brain [1]: delivered across placental barrier during pregnancy and via breast milk during lactation
- general behavioral profile of the adult mice (Ts65Dn mice; adult offspring treated E8-PND21): did not affect the general behavioral profile
- body weight, adult Ts65Dn mice (Ts65Dn mice; monthly evaluation, Dn-V-Dn vs. Dn-P-Dn, p > 0.05, treated E8-PND21): did not induce any significant changes in body weight
- body weight, adult WT mice (Ts65Dn mice; monthly evaluation, WT-V-WT vs. WT-P-WT and Dn-V-WT vs. Dn-P-WT, p > 0.05): did not produce any alterations in body weight
- general physical condition of treated mothers (Ts65Dn mice; pregnant mothers on P021 diet, evaluated up to 2-3 months after weaning the pups): did not show any treatment-induced alteration in their general physical condition
- stable in artificial gastric juice ([2]; analyzed up to 30 min): > 90%
- stable in artificial intestinal juice ([2]; analyzed up to 2 hours): > 95%
- BBB permeability [3]: BBB-permeable
- oral bioavailability (3xTg-AD mice): orally bioavailable
- water solubility [4]: water-soluble

B1: full-length human recombinant CNTF protein: full-length human recombinant ciliary neurotrophic factor protein given in clinical trials (protein, UniProt P26441 1-200, looked up)
chain: MAFTEHSPLTPHRRDLCSRSIWLARKIRSDLTALTESYVKHQGLNKNINLDSADGMPVASTDQWSELTEAERLQENLQAYRTFHVLLARLLEDQQVHFTPTEGDFHQAIHTLLLQVAAFAYQIEELMILLEYKIPRNEADGMPINVGDGGLFEKKLWGLKVLQELSQWTVRSIHDLRFISSHQTGIPARGSHYIANNKKM
modifications: full-length
- adverse effects in clinical trials [5]: anorexia, skeletal muscle loss, hyperalgesia, severe cramps, and muscle pain
